Results reported in PubChem BioAssay (NCI).
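Cells were grown in 96-well plates and exposed to each compound for 48 hours at five concentrations; endpoints were interpolated linearly between bracketing concentrations, or set to the highest concentration if not reached. TGI: concentration producing complete growth inhibition.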

Experiments:
Assay in all cases: inhibition of tumour cell growth, NCI panel, 48 h
[1] = tested on: M14 melanoma
[2] = tested on: SW-620 colon
[3] = tested on: KM12 colon
[4] = tested on: CCRF-CEM leukemia
[5] = tested on: HOP-92 NSCLC
[6] = tested on: MDA-MB-231 breast
[7] = tested on: IGROV1 ovarian
[8] = tested on: SK-MEL-28 melanoma
[9] = tested on: MDA-MB-435
[10] = tested on: UACC-257 melanoma
[11] = tested on: MOLT-4 leukemia
[12] = tested on: U251 CNS
[13] = tested on: SK-MEL-2 melanoma
[14] = tested on: SNB-75 CNS
[15] = tested on: OVCAR-3 ovarian
[16] = tested on: HT29 colon
[17] = tested on: RXF 393 renal
[18] = tested on: LXFL 529 NSCLC
[19] = tested on: SK-MEL-5 melanoma
[20] = tested on: EKVX NSCLC
[21] = tested on: HOP-18 NSCLC
[22] = tested on: NCI-H226 lung
[23] = tested on: TK-10 renal
[24] = tested on: SF-295 CNS
[25] = tested on: HCC-2998 colon
[26] = tested on: SK-OV-3 ovarian
[27] = tested on: LOX IMVI melanoma
[28] = tested on: DMS 114 small cell lung
[29] = tested on: NCI-H460 lung
[30] = tested on: OVCAR-8 ovarian
[31] = tested on: NCI-H522 lung
[32] = tested on: SR leukemia
[33] = tested on: HS 578T breast
[34] = tested on: MALME-3M melanoma
[35] = tested on: HCT-15 colon
[36] = tested on: A549 NSCLC
[37] = tested on: COLO 205 colon
[38] = tested on: SN12C renal
[39] = tested on: ACHN renal
[40] = tested on: T-47D breast
[41] = tested on: DLD-1 colon
[42] = tested on: NCI-H23 lung
[43] = tested on: HL-60(TB) leukemia
[44] = tested on: HCT-116 colon
[45] = tested on: UACC-62 melanoma
[46] = tested on: MDA-N
[47] = tested on: OVCAR-5 ovarian
[48] = tested on: SNB-19 CNS
[49] = tested on: SF-539 CNS
[50] = tested on: K-562 leukemia
[51] = tested on: A498 renal
[52] = tested on: CAKI-1 renal
[53] = tested on: DU-145 prostate
[54] = tested on: PC-3 prostate
[55] = tested on: NCI/ADR-RES ovarian
[56] = tested on: M19-MEL melanoma
[57] = tested on: 786-0 renal
[58] = tested on: XF 498 CNS
[59] = tested on: MCF7 breast
[60] = tested on: OVCAR-4 ovarian
[61] = tested on: SNB-78 CNS
[62] = tested on: UO-31 renal
[63] = tested on: RPMI-8226 leukemia
[64] = tested on: SF-268 CNS
[65] = tested on: DMS 273 small cell lung
[66] = tested on: RXF-631 renal
[67] = tested on: HOP-62 NSCLC
[68] = tested on: KM20L2 colon

For `COCc1cc2c(s1)C(=O)C1=C(C2=O)C2(C=C(Br)C(=O)C(Br)=C2)CCN1`, the TGI [1] was 4.32 µM, the TGI [2] was 10.6 µM and the TGI [3] was 17.9 µM. The TGI [4] was 16.7 µM, the TGI [5] was 15.1 µM and the TGI [6] was 15.2 µM. It also gave a TGI [7] of 19.3 µM, a TGI [8] of 20.3 µM and a TGI [9] of 2.94 µM. It also gave a TGI [10] of 3.32 µM, a TGI [11] of 8.29 µM and a TGI [12] of 23.7 µM. The TGI [13] was 15.2 µM, the TGI [14] was 27.9 µM and the TGI [15] was 11.8 µM. It also gave a TGI [16] of 12.9 µM, a TGI [17] of 6.94 µM and a TGI [18] of 11.7 µM. It also gave a TGI [19] of 5.62 µM, a TGI [20] of 26.3 µM and a TGI [21] of 28.4 µM. The TGI [22] was 26.7 µM, the TGI [23] was 32.4 µM and the TGI [24] was 19.3 µM. The TGI [25] was 24.8 µM, the TGI [26] was 30.7 µM and the TGI [27] was 7.68 µM. For the same molecule, the TGI [28] was 3.34 µM, the TGI [29] was 14.5 µM and the TGI [30] was 14.8 µM. For the same molecule, the TGI [31] was 7.31 µM, the TGI [32] was 8.35 µM and the TGI [33] was 30.6 µM. For the same molecule, the TGI [34] was 2.23 µM, the TGI [35] was 14.7 µM and the TGI [36] was 19.4 µM. It also gave a TGI [37] of 12.4 µM, a TGI [38] of 20.4 µM and a TGI [39] of 18 µM. For the same molecule, the TGI [40] was 9.2 µM, the TGI [41] was 24.4 µM and the TGI [42] was 9.51 µM. It also gave a TGI [43] of 16.3 µM, a TGI [44] of 3.11 µM and a TGI [45] of 3.08 µM. The TGI [46] was 3.11 µM, the TGI [47] was 29.5 µM and the TGI [48] was 35.5 µM. It also gave a TGI [49] of 15.5 µM, a TGI [50] of 9.32 µM and a TGI [51] of 29.6 µM. The TGI [52] was 34.6 µM, the TGI [53] was 29.8 µM and the TGI [54] was 12.1 µM. The TGI [55] was 9.41 µM, the TGI [56] was 2.77 µM and the TGI [57] was 16.3 µM. It also gave a TGI [58] of 19.6 µM, a TGI [59] of 28.1 µM and a TGI [60] of 3.57 µM. The TGI [61] was 24.4 µM, the TGI [62] was 25.4 µM and the TGI [63] was 19.8 µM. The TGI [64] was 17.8 µM and the TGI [65] was 13.6 µM.
In the case of `Cc1cccc(C)c1NC(=O)CCCC(=O)C(C#N)c1ccccc1` (stereo not given), the TGI [1] is reported as greater than 100 µM, the TGI [2] is reported as greater than 100 µM and the TGI [4] is reported as greater than 100 µM. For the same molecule, the TGI [5] was greater than 100 µM, the TGI [7] was greater than 100 µM and the TGI [8] was greater than 100 µM. The TGI [10] was greater than 100 µM, the TGI [11] was greater than 100 µM and the TGI [13] was greater than 100 µM. It also gave a TGI [14] greater than 100 µM, a TGI [17] greater than 100 µM and a TGI [18] greater than 100 µM. It also gave a TGI [19] greater than 100 µM, a TGI [22] greater than 100 µM and a TGI [26] greater than 100 µM. The TGI [31] was greater than 100 µM, the TGI [32] was greater than 100 µM and the TGI [37] was greater than 100 µM. The TGI [39] was greater than 100 µM, the TGI [41] was greater than 100 µM and the TGI [42] was greater than 100 µM. For the same molecule, the TGI [43] was greater than 100 µM, the TGI [44] was greater than 100 µM and the TGI [50] was greater than 100 µM. For the same molecule, the TGI [52] was greater than 100 µM, the TGI [56] was greater than 100 µM and the TGI [60] was greater than 100 µM. It also gave a TGI [61] greater than 100 µM, a TGI [62] greater than 100 µM and a TGI [66] greater than 100 µM. It also gave a TGI [63] greater than 100 µM.
`COCOC1CCCC[C@@]1(OCCOCCO[C@@]1(c2ccccc2)CCCC[C@H]1OCOC)c1ccccc1` (stereo not given in full) gave a TGI [1] greater than 100 µM, a TGI [2] greater than 100 µM and a TGI [3] greater than 100 µM. For the same molecule, the TGI [4] was greater than 100 µM, the TGI [7] was greater than 100 µM and the TGI [8] was greater than 100 µM. For the same molecule, the TGI [10] was greater than 100 µM, the TGI [12] was greater than 100 µM and the TGI [13] was greater than 100 µM. For the same molecule, the TGI [14] was 84.3 µM, the TGI [15] was greater than 100 µM and the TGI [16] was greater than 100 µM. It also gave a TGI [17] greater than 100 µM, a TGI [67] greater than 100 µM and a TGI [18] greater than 100 µM. The TGI [20] was greater than 100 µM, the TGI [21] was greater than 100 µM and the TGI [68] was greater than 100 µM. For the same molecule, the TGI [22] was greater than 100 µM, the TGI [23] was greater than 100 µM and the TGI [24] was greater than 100 µM. It also gave a TGI [25] greater than 100 µM, a TGI [26] greater than 100 µM and a TGI [27] greater than 100 µM. The TGI [28] was greater than 100 µM, the TGI [29] was greater than 100 µM and the TGI [30] was greater than 100 µM. It also gave a TGI [31] greater than 100 µM, a TGI [32] greater than 100 µM and a TGI [34] greater than 100 µM. For the same molecule, the TGI [36] was greater than 100 µM, the TGI [37] was greater than 100 µM and the TGI [38] was greater than 100 µM. For the same molecule, the TGI [39] was greater than 100 µM, the TGI [41] was greater than 100 µM and the TGI [42] was greater than 100 µM. For the same molecule, the TGI [43] was greater than 100 µM, the TGI [44] was greater than 100 µM and the TGI [45] was greater than 100 µM. For the same molecule, the TGI [47] was greater than 100 µM, the TGI [48] was greater than 100 µM and the TGI [50] was greater than 100 µM. The TGI [52] was greater than 100 µM, the TGI [56] was greater than 100 µM and the TGI [57] was greater than 100 µM. For the same molecule, the TGI [58] was greater than 100 µM, the TGI [60] was greater than 100 µM and the TGI [61] was greater than 100 µM. The TGI [62] was greater than 100 µM, the TGI [63] was greater than 100 µM and the TGI [64] was greater than 100 µM. It also gave a TGI [65] greater than 100 µM.
For `CS(=O)(=O)OCCN1CCN(C(=O)c2ccc(Cl)c3c(Nc4ccc(S(=O)(=O)N=C(N)N)cc4)c4ccccc4nc23)CC1`, the TGI [1] was greater than 100 µM, the TGI [3] was greater than 100 µM and the TGI [4] was greater than 100 µM. For the same molecule, the TGI [5] was greater than 100 µM, the TGI [7] was greater than 100 µM and the TGI [8] was greater than 100 µM. The TGI [10] was greater than 100 µM, the TGI [11] was greater than 100 µM and the TGI [12] was greater than 100 µM. The TGI [13] was greater than 100 µM, the TGI [14] was greater than 100 µM and the TGI [15] was greater than 100 µM. It also gave a TGI [16] greater than 100 µM, a TGI [17] greater than 100 µM and a TGI [67] greater than 100 µM. The TGI [19] was greater than 100 µM, the TGI [68] was greater than 100 µM and the TGI [22] was greater than 100 µM. The TGI [23] was greater than 100 µM, the TGI [24] was greater than 100 µM and the TGI [25] was greater than 100 µM. The TGI [26] was greater than 100 µM, the TGI [28] was greater than 100 µM and the TGI [29] was greater than 100 µM. It also gave a TGI [30] greater than 100 µM, a TGI [32] greater than 100 µM and a TGI [34] greater than 100 µM. The TGI [35] was greater than 100 µM, the TGI [36] was greater than 100 µM and the TGI [37] was greater than 100 µM. For the same molecule, the TGI [38] was greater than 100 µM, the TGI [39] was greater than 100 µM and the TGI [41] was greater than 100 µM. The TGI [42] was greater than 100 µM, the TGI [43] was greater than 100 µM and the TGI [44] was greater than 100 µM. The TGI [45] was greater than 100 µM, the TGI [47] was greater than 100 µM and the TGI [48] was greater than 100 µM. The TGI [49] was greater than 100 µM, the TGI [50] was greater than 100 µM and the TGI [51] was greater than 100 µM. For the same molecule, the TGI [52] was greater than 100 µM, the TGI [56] was greater than 100 µM and the TGI [57] was greater than 100 µM. It also gave a TGI [58] greater than 100 µM, a TGI [60] greater than 100 µM and a TGI [62] greater than 100 µM. For the same molecule, the TGI [66] was greater than 100 µM, the TGI [63] was greater than 100 µM and the TGI [64] was greater than 100 µM. The TGI [65] was greater than 100 µM.
